What was measured:
[1] = Rat pharmacokinetics, cassette dosing (IV and PO); format: in vivo; settings: rat, plasma, male SD rats; for bioavailability: 5 mg/kg, oral AUC to IV AUC, dose adjusted; for IV clearance: IV 1 mg/kg; for AUC / Cmax / half-life: PO 5 mg/kg; for half-life: read-out: PO T½ (converted)
Experimental: Male SD rats were fasted overnight. Compounds of the invention were dissolved in dimethyl acetamide at 10 times the final concentration, then Solutol HS 15 (BASF) was added to a final concentration of 10%. Finally 80% saline was added and vortexed to achieve a clear solution. For the IV dosing three animals were injected via the foot dorsal vein with 1 mg/kg compound. For the PO dosing 5 mg/kg of compound was delivered by oral gavage. Blood was collected via the tail vein into K2EDTA tubes at 5 minutes, 15 minutes, 30 minutes, 1 hour, 2 hours, 4 hours, 8 hours and 24 hours after dosing. The blood was centrifuged at 2000 g for 5 minutes at 4° C. to obtain plasma. The plasma was extracted with acetonitrile and the level of compound was analyzed by LC/MS/MS. The level of compound in plasma was calculated from a standard curve in rat plasma. The IV clearance (L/h/kg) and area under the curve (h*ng/mL) were calculated using WinNonLin software. The dose adjusted area under the curve for the IV and oral dosing were used to calculate the oral bioavailability.
Pharmacokinetic properties were assessed in a rat cassette dosing experiment. The IV clearance (IV Clr.) is in units of L/hr/kg. The oral maximum plasma concentration (PO Cmax) is in units of ng/ml. The oral plasma half-life (PO T½) is in units of hours. The oral area under the curve (PO AUC) is in units of hours*ng/ml. The fraction absorbed by the oral route (F %) is a percentage of the oral area under the curve to the IV area under the curve, dose adjusted.

hERG = hERG (Homo sapiens (Human), UniProt Q12809); test: hERG inhibition, whole-cell patch clamp; format: cell-based; settings: HEK293 cells stably transfected with hERG, 34 °C, tail current
Experimental: For hERG inhibition assays, the cells used were HEK293 cells stably transfected with hERG (cell line obtained from Cytocentrics Inc. 3463 Magic Drive San Antonio, Tex. 78229). Composition of External Solution: NaCl, 137 mM; KCl, 4 mM; MgCl2, 1.0 mM; CaCl2, 1.8 mM; HEPES 10 mM; Dextrose 11 mM; Adjusted to a pH of 7.4 with NaOH. Composition of Internal Solution: KCl, 130.0 mM; MgCl2, 1.0 mM; HEPES, 5.0 mM; EGTA, 5.0 mM; NaCl 7.0 mM. Adjusted to a pH of 7.2 using KOH. Test Concentrations: 0.1, 1, 10, 100 μM. Vehicle: DMSO. Experiments were performed at 34+/−1° C. Current was recorded using the whole-cell patch clamp technique on the Cytopatch automated platform. hERG current was elicited with the following voltage protocol: hERG current amplitude was measured as the peak current at −50 mV (tail current). […] Each cell served as its own control. Data are presented as the IC50 calculated by non-linear regression analysis.

[2] = tested on: CYP1A2, CYP2C9, CYP2C19, CYP3A4, CYP2D6; test: Cyp inhibition in human liver microsomes (all isozymes); format: in vitro ADME
Experimental: (§1) For Cyp inhibition, human liver microsomes from BD Gentest were incubated with Compound 028 or Compound 032 (10, 3.33, 1.11, 0.37, 0.12, 0.04, 0.01 μM) and substrate (CYP1A2: Phenacetin at 30 μM; CYP2C9: Diclofenac at 10 μM; CYP2C19: S-Mephenytoin at 35 μM; CYP3A4: Midazolam at 5 μM and Testosterone at 80 μM; CYP2D6: Bufuralol at 10 μM) for the following incubation times: CYP1A2, 2C9, 2D6: 10 minutes, 37° C.; CYP2C19: 45 minutes, 37° C.; CYP3A4: 5 minutes, 37° C. Substrate conversion was measured by liquid chromatography/mass spectrometry/mass spectrometry (LC/MS/MS). Inhibition was calculated by curve fitting in Graph Pad Prism.

CYP3A4 = CYP3A4 (Homo sapiens (Human), UniProt P08684); test: Cyp inhibition in human liver microsomes (3A4/midazolam); format: in vitro ADME
Experimental: as §1, with “CYP2C9:” for “For Cyp inhibition, human liver microsomes from BD Gentest were incubated with Compound 028 or Compound 032 (10, 3.33, 1.11, 0.37, 0.12, 0.04, 0.01 μM) and substrate (CYP1A2: Phenacetin at 30 μM; CYP2C9:”

hERG, sequence (Q12809 whole entry): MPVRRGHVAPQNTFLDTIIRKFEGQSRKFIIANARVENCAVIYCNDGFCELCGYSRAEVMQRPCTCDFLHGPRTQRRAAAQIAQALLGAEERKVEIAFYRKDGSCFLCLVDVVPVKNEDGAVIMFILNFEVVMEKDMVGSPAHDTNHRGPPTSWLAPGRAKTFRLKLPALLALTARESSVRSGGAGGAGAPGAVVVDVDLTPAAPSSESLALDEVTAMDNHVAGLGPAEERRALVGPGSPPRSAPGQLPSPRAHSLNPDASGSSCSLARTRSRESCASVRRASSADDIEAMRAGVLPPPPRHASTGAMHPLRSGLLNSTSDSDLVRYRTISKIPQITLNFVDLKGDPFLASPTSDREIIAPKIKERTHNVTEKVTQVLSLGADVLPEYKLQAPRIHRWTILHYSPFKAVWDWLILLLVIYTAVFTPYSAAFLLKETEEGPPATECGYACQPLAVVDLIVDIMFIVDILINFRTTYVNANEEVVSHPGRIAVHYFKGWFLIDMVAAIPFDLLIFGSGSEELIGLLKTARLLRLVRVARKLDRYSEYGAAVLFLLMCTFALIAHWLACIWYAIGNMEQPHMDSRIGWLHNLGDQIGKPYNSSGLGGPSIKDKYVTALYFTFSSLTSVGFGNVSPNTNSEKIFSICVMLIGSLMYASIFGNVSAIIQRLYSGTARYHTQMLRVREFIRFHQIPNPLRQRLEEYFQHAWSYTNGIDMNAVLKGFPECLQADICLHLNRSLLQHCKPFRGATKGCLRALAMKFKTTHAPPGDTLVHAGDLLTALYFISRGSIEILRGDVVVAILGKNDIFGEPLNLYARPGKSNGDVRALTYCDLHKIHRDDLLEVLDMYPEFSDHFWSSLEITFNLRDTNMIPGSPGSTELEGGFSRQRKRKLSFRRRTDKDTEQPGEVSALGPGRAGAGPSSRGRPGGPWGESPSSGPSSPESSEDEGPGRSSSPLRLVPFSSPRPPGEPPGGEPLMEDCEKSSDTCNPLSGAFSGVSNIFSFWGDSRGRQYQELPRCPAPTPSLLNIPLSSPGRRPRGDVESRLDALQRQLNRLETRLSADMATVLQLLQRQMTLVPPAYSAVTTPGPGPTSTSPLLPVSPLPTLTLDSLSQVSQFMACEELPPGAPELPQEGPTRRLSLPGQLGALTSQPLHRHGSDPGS
CYP3A4, sequence (P08684 whole entry): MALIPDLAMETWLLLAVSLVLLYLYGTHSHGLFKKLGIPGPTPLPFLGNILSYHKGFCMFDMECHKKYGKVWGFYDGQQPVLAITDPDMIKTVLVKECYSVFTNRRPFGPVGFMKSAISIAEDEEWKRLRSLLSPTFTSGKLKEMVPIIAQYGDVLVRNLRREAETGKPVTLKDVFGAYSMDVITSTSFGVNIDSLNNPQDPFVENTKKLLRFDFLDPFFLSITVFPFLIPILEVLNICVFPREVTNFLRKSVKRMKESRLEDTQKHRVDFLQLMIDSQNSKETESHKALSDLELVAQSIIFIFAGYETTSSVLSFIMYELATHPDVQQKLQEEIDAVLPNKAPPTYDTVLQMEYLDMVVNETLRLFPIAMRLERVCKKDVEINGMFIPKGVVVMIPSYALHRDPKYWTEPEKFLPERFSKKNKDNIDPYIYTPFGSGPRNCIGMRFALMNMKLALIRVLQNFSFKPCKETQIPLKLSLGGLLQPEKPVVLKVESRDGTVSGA

Nc1ccc(-c2ccco2)cc1NC(=O)c1ccc2nc(N3CCNCC3)ccc2c1 [Compound 003]
bioavailability [1]: 77% | IV clearance [1]: 3.17 mL/min/kg | AUC [1]: 19100 ng·h/mL | Cmax [1]: 1910 ng/mL | half-life [1]: 5 h | IC50 (hERG): 7.6 µM | IC50 [2]: > 10 µM

CN1CCN(c2ccc(C(=O)Nc3cc(-c4ccncc4)ccc3N)cn2)CC1 [Compound 027]
bioavailability [1]: 78.6% | IV clearance [1]: 10.5 mL/min/kg | AUC [1]: 6190 ng·h/mL | Cmax [1]: 839 ng/mL | half-life [1]: 3 h | IC50 (hERG): > 100 µM | IC50 [2]: > 10 µM

CN1CCN(c2ccc(C(=O)Nc3cc(-c4ccncc4)ccc3N)nc2)CC1 [Compound 028]
IC50 (hERG): 38 µM | IC50 (CYP3A4): 5.9 µM

Cc1nc(N2CCNCC2)sc1C(=O)Nc1cc(-c2cccs2)ccc1N [Compound 031]
IC50 (hERG): 12 µM | IC50 [2]: > 10 µM

Nc1ccc(-c2ccccc2)cc1NC(=O)c1cc2ccc(N3CCNCC3)cc2cn1 [Compound 022]
bioavailability [1]: 195% | IV clearance [1]: 16.3 mL/min/kg | AUC [1]: 8180 ng·h/mL | Cmax [1]: 517 ng/mL | half-life [1]: 13.5 h | IC50 (hERG): 0.4 µM | IC50 [2]: > 10 µM

Nc1ccc(-c2ccncc2)cc1NC(=O)c1cnc(N2CCNCC2)s1 [Compound 032]
bioavailability [1]: 9.7% | IV clearance [1]: 17.7 mL/min/kg | AUC [1]: 456 ng·h/mL | Cmax [1]: 173 ng/mL | half-life [1]: 4.3 h | IC50 (hERG): 12 µM | IC50 (CYP3A4): 9.5 µM

Nc1ccc(-c2cccs2)cc1NC(=O)c1ccc(N2CCNCC2)nc1 [Compound 007]
IC50 (hERG): 8.6 µM | IC50 [2]: > 10 µM
